Assay [1] relates to brains of SKH-1 mice. Kind of assay: LXR-dependent gene expression in brain of mice after subcutaneous injection. The assay is classed as in vivo, mouse. The conditions noted are these: 6 h, SKH-1-M mice. As to the method: Adult hairless mice SKH-1 (Male, 16 weeks old) and Ptch^+/−/SKH-1 (Male, 18 weeks old) were injected subcutaneously with 20 µg and 10 µg/kg of 20(OH)D3, respectively, dissolved in ethanol, further diluted in propylene glycol (PG) and saline (0.9%) sequentially (1:19:80, v/v/v). Controls were injected with the vehicle without the drug. )After 6 h the animals were killed by halothane followed by cervical dislocation and brains were collected for RNA and protein extraction protocols. The procedures followed the guidelines and approvals of the Institute Animal Care and Use Committee of the University of Alabama at Birmingham (IACUC).
RNA isolated from either fibroblasts, HaCaT cells or brain was submitted for cDNA synthesis (High Capacity cDNA Reverse Transcription Kit with RNase Inhibitor, Applied Biosystems) following the manufacturers’ protocols. RT-PCR was carried out using Cyber green, in triplicates; as previously described. Approximately, 750 ng of cDNA was used for PCR reactions. GAPDH and CIC-B were used as internal controls. Primer sequences are listed in Supplementary Table 27. Data were analyzed using GraphPad Prism statistical software one way ANOVA or t-test, where appropriate; *p < 0.05; **p < 0.01; ***p < 0.001.

Assay [2] has as its target T1, LXRα (Homo sapiens, UniProt Q13133).
T1 construct: endogenous in cells; host or cells: HaCaT keratinocytes
T1 sequence (Q13133 1-447): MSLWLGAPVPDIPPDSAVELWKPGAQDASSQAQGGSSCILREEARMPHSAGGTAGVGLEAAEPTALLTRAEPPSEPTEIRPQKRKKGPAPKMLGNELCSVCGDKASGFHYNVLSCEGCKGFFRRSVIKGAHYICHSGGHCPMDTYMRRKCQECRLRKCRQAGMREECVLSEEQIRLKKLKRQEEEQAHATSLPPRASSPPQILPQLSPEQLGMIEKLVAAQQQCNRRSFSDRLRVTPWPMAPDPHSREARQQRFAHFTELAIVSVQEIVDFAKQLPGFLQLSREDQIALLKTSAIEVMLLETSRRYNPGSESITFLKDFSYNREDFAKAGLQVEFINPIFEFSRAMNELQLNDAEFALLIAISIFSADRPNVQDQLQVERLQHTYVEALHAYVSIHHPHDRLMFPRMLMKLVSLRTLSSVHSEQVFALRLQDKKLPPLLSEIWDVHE
Kind of assay: Ligand induced translocation of LXRα to the nucleus, immunofluorescence in HaCaT. The note with it: 10^−7 M, 24 h. The assay is classed as cell-based. As to the method:
HaCaT cells were plated in DMEM plus 5% cFBS either on a sterile glass cover slip placed in a well of a 6-well plates for immunofluorescence (IF) assays or TPP Petri dishes for image-stream flow cytometry, and treated with 10^–7 M D3- or L3-hydroxyderivatives or 0.1% ethanol (vehicle) as a negative control was added to each well, and the cells were incubated for 12 or 24 h at 37 °C with 5% CO2. For IF the cells were fixed in 4% paraformaldehyde for 15 min, incubated in 0.5% Triton X-100 in phosphate-buffered saline (PBS) for 5 min, and washed 3 times in PBS. After blocking with 2% bovine serum albumin (BSA) in PBS for 1 h at room temperature, the cells were treated with an anti-LXRα antibody (Novus Biologicals, LLC, Centennial, CO) at 1:200 in PBS supplemented with 2% BSA overnight in 4 °C. After washing the slides were incubated with a mouse anti-rabbit IgG-FITC (Santa Cruz Biotechnology, Inc, Dallas, TX) at 1:200 dilution for 1.5 h at 37 °C. After washing the slides were mounted using propidium iodide (PI) (Vector Labs, Burlingame, California) as a nuclear counterstain. The slides were examined using a KEYENCE America BZ-X710 Fluorescence Microscope (Itasca, IL). The images were subsequently analyzed using the JACoP plugin for colocalization analysis with ImageJ[74]. Five separate high-power field (40×) images were converted to grayscale and analyzed for each condition. Manders’ coefficient (M1), calculated using a preset threshold, was used to quantify the degree of colocalization between PI and LXRα with 0 representing no colocalization, and 1 representing perfect colocalization.

For assay [3], the system named is LXRα/β binding to the LXRE within the ABCA1 promoter region. Kind of assay: ChIP assay in HaCaT keratinocytes. The assay is classed as cell-based, human. The note with it: 10^–7 M, 24 h. The source says:
We followed protocols described in Ref.[40]. […] The cells were harvested and in vivo crosslinking, lysis and sonication of the chromatin, as well as following steps of ChIP assay, were done using Magna ChiP G Kit 0002 (Millipore). […] The purified DNA fragments were PCR amplified with the following sequence of PCR primers for human ABCA1 LXR-responsive element (LXRE): Forward: [NT], Reverse: [NT] and for human GAPDH as a reference gene: Forward: [NT], Reverse: [NT] (Eurofins Genomics). The PCR reaction was performed using Dream Taq Green PCR Master Mix (2×) (Thermo Scientific, cat. no. K1081) according to the following procedure: initial denaturation: 95 °C for 3 min; denaturation: 95 °C for 30 s (× 35 cycles); annealing: 58 °C for 30 s (× 35 cycles in the same cycles with denaturation); extension: 72 °C for 1 min; final extension: 72 °C for 15 min. The detection of amplification product was done by standard agarose gel electrophoresis with EtBr using Invitrogen iBright CL1000 Imaging System, with # SM Gene Ruler 1 kb Plus DNA Ladder (Thermo Scientific) as a marker.

Turning to `C=C1CC[C@H](O)C/C1=C/C=C1\CCC[C@@]2(C)[C@H]1CC[C@@H]2[C@@](C)(O)CCCC(C)C` [20(OH)D3], the “LXR-dependent gene expression in brain” value is “stimulated expression of Abca1, Abcg1, Abcg5, ApoE, Fas and Cyp7a1” in assay [1] (10 µg/kg); “stimulated expression of Lpl, Abca1, ApoE and Cyp7a1” in assay [1] (20 µg/kg). For the same molecule, the “translocation of LXRα to the nucleus (immunofluorescence, Manders' coefficient)” value in assay [2] is on record as “induced translocation”.
Turning to `C=C1/C(=C\C=C2/CCC[C@]3(C)[C@@H]([C@H](C)CCCC(C)(C)O)CC[C@@H]23)C[C@@H](O)C[C@@H]1O` [1,25(OH)2D3, reference compound], the “LXRα/β binding to the LXRE within the ABCA1 promoter region (ChIP)” value in assay [3] is listed as “significant stimulation”. The “translocation of LXRα to the nucleus (immunofluorescence, Manders' coefficient)” value in assay [2] is on record as “induced translocation”.

For the origin of these results see article PMC8044163, “Vitamin D and lumisterol derivatives can act on liver X receptors (LXRs)” (Scientific Reports, 2021).
